Data on six compounds can be found in PubChem BioAssay AID256 (DTP/NCI, 2004).

The experiment deals with CD2F1 mice, L1210 leukemia ip, survival T/C. Put plainly: NCI In Vivo Anticancer Drug Screen. Data for tumor model L1210 Leukemia (intraperitoneal) in CD2F1 (CDF1) mice. The settings on record: higher = longer survival. An outline of the steps:
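Activity against a transplanted murine tumor was judged by comparing the compound group with a vehicle group. The outcome in the treated animals was divided by that in the controls.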

[1] abbreviates: endpoint: mean survival time, dose: 100.0 mg/kg/injection, schedule: Q01DX009 (ip), vehicle: saline with Tween-80.
[2] abbreviates: endpoint: mean survival time, dose: 200.0 mg/kg/injection, schedule: Q01DX009 (ip), vehicle: saline with Tween-80.

Values joined by “and” are separate entries in the source; they are usually repeats but may differ in a detail not shown here. Equal values may be shown once. Toxic doses and inconclusive results are not listed.

For `C=CCOc1cc2c(cc1C(C)c1ccc(OC)cc1)OCO2` (configuration not stated), the T/C is, setting by setting: (endpoint: median survival time, dose: 25.0 mg/kg/injection, schedule: Q01DX009 (ip), vehicle: Klucel (hydroxypropylcellulose) (HPC)) 100 % of control and 103 % of control; (endpoint: median survival time, dose: 50.0 mg/kg/injection, schedule: Q01DX005 (ip), vehicle: Klucel (hydroxypropylcellulose) (HPC)) 94 % of control; (endpoint: median survival time, dose: 50.0 mg/kg/injection, schedule: Q01DX009 (ip), vehicle: Klucel (hydroxypropylcellulose) (HPC)) 120 % of control and 101 % of control and 104 % of control; (endpoint: median survival time, dose: 50.0 mg/kg/injection, schedule: Q01DX009 (ip), vehicle: saline with Tween-80) 105 % of control; (endpoint: median survival time, dose: 100.0 mg/kg/injection, schedule: Q01DX005 (ip), vehicle: Klucel (hydroxypropylcellulose) (HPC)) 103 % of control; (endpoint: median survival time, dose: 100.0 mg/kg/injection, schedule: Q01DX009 (ip), vehicle: Klucel (hydroxypropylcellulose) (HPC)) 105 % of control and 110 % of control. Besides, the T/C is 107 % of control (endpoint: median survival time, dose: 100.0 mg/kg/injection, schedule: Q01DX009 (ip), vehicle: saline with Tween-80); 108 % of control (endpoint: median survival time, dose: 200.0 mg/kg/injection, schedule: Q01DX005 (ip), vehicle: Klucel (hydroxypropylcellulose) (HPC)); 118 % of control (endpoint: median survival time, dose: 400.0 mg/kg/injection, schedule: Q01DX005 (ip), vehicle: Klucel (hydroxypropylcellulose) (HPC)); 124 % of control (endpoint: median survival time, dose: 400.0 mg/kg/injection, schedule: Q01DX009 (ip), vehicle: saline with Tween-80); 95 % of control (endpoint: median survival time, dose: 800.0 mg/kg/injection, schedule: Q01DX005 (ip), vehicle: Klucel (hydroxypropylcellulose) (HPC)); 98 % of control (endpoint: median survival time, dose: 800.0 mg/kg/injection, schedule: Q01DX009 (ip), vehicle: saline with Tween-80).
As for `[N-]=[N+]=CC(=O)CCC(N)C(=O)O` (configuration not stated), the T/C (endpoint: mean survival time, dose: 0.03 mg/kg/injection, schedule: Q01DX009 (ip), vehicle: saline) was 119 % of control; the T/C (endpoint: mean survival time, dose: 0.05 mg/kg/injection, schedule: Q01DX009 (ip), vehicle: saline) is 116 % of control; the T/C (endpoint: mean survival time, dose: 0.05 mg/kg/injection, schedule: Q01DX009 (oral), vehicle: saline) was 107 % of control; the T/C (endpoint: mean survival time, dose: 0.05 mg/kg/injection, schedule: Q01DX009 (sc), vehicle: saline) was 117 % of control; the T/C (endpoint: mean survival time, dose: 0.1 mg/kg/injection, schedule: Q03DX003 (ip), vehicle: saline) is 115 % of control; the T/C (endpoint: mean survival time, dose: 0.1 mg/kg/injection, schedule: Q04DX003 (ip), vehicle: saline) is 117 % of control. Moreover, the T/C reads like this: (endpoint: mean survival time, dose: 0.2 mg/kg/injection, schedule: Q01DX009 (oral), vehicle: saline) 116 % of control; (endpoint: mean survival time, dose: 0.2 mg/kg/injection, schedule: Q03DX003 (ip), vehicle: saline) 118 % of control; (endpoint: mean survival time, dose: 0.2 mg/kg/injection, schedule: Q04DX003 (ip), vehicle: saline) 123 % of control; (endpoint: mean survival time, dose: 0.4 mg/kg/injection, schedule: Q03HX024 (ip), vehicle: saline) 162 % of control; (endpoint: mean survival time, dose: 0.8 mg/kg/injection, schedule: Q01DX009 (sc), vehicle: saline) 90 % of control; (endpoint: mean survival time, dose: 0.8 mg/kg/injection, schedule: Q03HX024 (ip), vehicle: saline) 102 % of control. Moreover, the T/C is, setting by setting: (endpoint: mean survival time, dose: 1.6 mg/kg/injection, schedule: Q03HX024 (ip), vehicle: saline) 105 % of control; (endpoint: mean survival time, dose: 3.1 mg/kg/injection, schedule: Q03HX016 (ip), vehicle: saline) 119 % of control; (endpoint: mean survival time, dose: 6.25 mg/kg/injection, schedule: Q03HX008 (ip), vehicle: saline) 118 % of control; (endpoint: mean survival time, dose: 6.25 mg/kg/injection, schedule: Q04DX003 (ip), vehicle: saline) 156 % of control; (endpoint: mean survival time, dose: 25.0 mg/kg/injection, schedule: Q04DX003 (ip), vehicle: saline) 155 % of control; (endpoint: mean survival time, dose: 25.0 mg/kg/injection, schedule: Q08DX002 (ip), vehicle: saline) 150 % of control. The T/C reads like this: (endpoint: mean survival time, dose: 50.0 mg/kg/injection, schedule: Q01DX001 (ip), vehicle: saline) 151 % of control; (endpoint: mean survival time, dose: 50.0 mg/kg/injection, schedule: Q04DX003 (ip), vehicle: saline) 122 % of control; (endpoint: mean survival time, dose: 50.0 mg/kg/injection, schedule: Q08DX002 (ip), vehicle: saline) 162 % of control; (endpoint: mean survival time, dose: 100.0 mg/kg/injection, schedule: Q01DX001 (ip), vehicle: saline) 151 % of control; (endpoint: mean survival time, dose: 100.0 mg/kg/injection, schedule: Q01DX001 (oral), vehicle: saline) 115 % of control; (endpoint: mean survival time, dose: 100.0 mg/kg/injection, schedule: Q08DX002 (ip), vehicle: saline) 155 % of control. For the same compound, the T/C was 88 % of control (endpoint: mean survival time, dose: 200.0 mg/kg/injection, schedule: Q01DX001 (oral), vehicle: saline); 110 % of control (endpoint: mean survival time, dose: 200.0 mg/kg/injection, schedule: Q01DX001 (sc), vehicle: saline); 96 % of control (endpoint: mean survival time, dose: 13.0 micrograms/kg/injection, schedule: Q01DX Z (ip), vehicle: saline); 94 % of control (endpoint: mean survival time, dose: 25.0 micrograms/kg/injection, schedule: Q01DX Z (ip), vehicle: saline); 100 % of control (endpoint: mean survival time, dose: 50.0 micrograms/kg/injection, schedule: Q01DX Z (ip), vehicle: saline); 124 % of control (endpoint: mean survival time, dose: 93.7 micrograms/kg/injection, schedule: Q01DX009 (ip), vehicle: saline). The T/C by setting is: (endpoint: median survival time, dose: 0.06 mg/kg/injection, schedule: Q01DX009 (ip), vehicle: saline) 119 % of control; (endpoint: median survival time, dose: 0.25 mg/kg/injection, schedule: Q01DX009 (ip), vehicle: saline) 118 % of control; (endpoint: median survival time, dose: 0.39 mg/kg/injection, schedule: Q01DX009 (ip), vehicle: saline) 98 % of control; (endpoint: median survival time, dose: 0.5 mg/kg/injection, schedule: Q01DX009 (ip), vehicle: saline) 102 % of control; (endpoint: median survival time, dose: 0.8 mg/kg/injection, schedule: Q01DX009 (ip), vehicle: saline) 94 % of control and 98 % of control; (endpoint: median survival time, dose: 2.5 mg/kg/injection, schedule: Q04DX003 (ip), vehicle: saline) 152 % of control. For the same compound, the T/C was 153 % of control and 163 % of control (endpoint: median survival time, dose: 5.0 mg/kg/injection, schedule: Q04DX003 (ip), vehicle: saline); 167 % of control and 173 % of control (endpoint: median survival time, dose: 10.0 mg/kg/injection, schedule: Q04DX003 (ip), vehicle: saline); 184 % of control and 189 % of control (endpoint: median survival time, dose: 20.0 mg/kg/injection, schedule: Q04DX003 (ip), vehicle: saline); 195 % of control and 205 % of control (endpoint: median survival time, dose: 40.0 mg/kg/injection, schedule: Q04DX003 (ip), vehicle: saline); 114 % of control (endpoint: median survival time, dose: 100.0 mg/kg/injection, schedule: Q01DX001 (ip), vehicle: saline).
For `Cc1c(N)nc(I)c2ccccc12`, the T/C is, setting by setting: under setting [1], 98 % of control; under setting [2], 93 % of control; (endpoint: mean survival time, dose: 400.0 mg/kg/injection, schedule: Q01DX009 (ip), vehicle: saline with Tween-80) 87 % of control.
As for `COc1ccc2c(c1)C(=O)C(Br)CC2` (configuration not stated), the T/C runs as follows: (endpoint: mean survival time, dose: 100.0 mg/kg/injection, schedule: Q01DX001 (ip), vehicle: saline with Tween-80) 101 % of control; under setting [1], 98 % of control and 101 % of control; (endpoint: mean survival time, dose: 100.0 mg/kg/injection, schedule: Q04DX002 (ip), vehicle: saline with Tween-80) 101 % of control and 102 % of control; (endpoint: mean survival time, dose: 100.0 mg/kg/injection, schedule: Q04DX003 (ip), vehicle: saline with Tween-80) 108 % of control; (endpoint: mean survival time, dose: 200.0 mg/kg/injection, schedule: Q01DX001 (ip), vehicle: saline with Tween-80) 93 % of control; under setting [2], 97 % of control and 98 % of control. For the same compound, the T/C is 100 % of control and 104 % of control (endpoint: mean survival time, dose: 200.0 mg/kg/injection, schedule: Q04DX002 (ip), vehicle: saline with Tween-80); 97 % of control (endpoint: mean survival time, dose: 200.0 mg/kg/injection, schedule: Q04DX003 (ip), vehicle: saline with Tween-80); 95 % of control (endpoint: mean survival time, dose: 400.0 mg/kg/injection, schedule: Q01DX001 (ip), vehicle: saline with Tween-80); 103 % of control and 104 % of control (endpoint: mean survival time, dose: 400.0 mg/kg/injection, schedule: Q04DX002 (ip), vehicle: saline with Tween-80); 110 % of control (endpoint: mean survival time, dose: 400.0 mg/kg/injection, schedule: Q04DX003 (ip), vehicle: saline with Tween-80).
For the compound `Nc1cc(C(=O)Nc2ccc(C3=NCCN3)cc2)cc(C(=O)Nc2ccc(C3=NCCN3)cc2)c1`, the T/C was 115 % of control (endpoint: mean survival time, dose: 31.3 mg/kg/injection, schedule: Q01DX010 (oral), vehicle: saline) and 159 % of control (endpoint: mean survival time, dose: 250.0 mg/kg/injection, schedule: Q01DX010 (oral), vehicle: saline).
`COc1ccc(N)cc1OC`: the T/C reads like this: (endpoint: mean survival time, dose: 100.0 mg/kg/injection, schedule: Q01DX009 (ip), vehicle: saline) 96 % of control; (endpoint: mean survival time, dose: 200.0 mg/kg/injection, schedule: Q01DX009 (ip), vehicle: saline) 102 % of control; (endpoint: mean survival time, dose: 400.0 mg/kg/injection, schedule: Q01DX009 (ip), vehicle: saline) 98 % of control.
